The test system of data set [1] is herpes simplex virus. The conditions noted are these: cited from earlier work.
The test system of data set [2] is varicella zoster virus. Briefly: Informal trials: topical ivermectin lotion in patients with herpes zoster (shingles). The class given is in vivo, human. From the text: For treating herpes zoster, preferably the surface of the affected area of the skin is gently scratched prior to rubbing the composition containing the macrocyclic lactone compound on the area. Gentle scratching abrades the stratumcorium, which allows better penetration of the macrocyclic lactone compound into the skin. The stratum corneum is the outermost layer of the epidermis, composed of large, polyhedral, plate-like envelopes filled with keratin, which is made up of dead cells that have migrated up from the stratum granulosum. As these dead cells slough off on the surface, they are continuously replaced by new cells from the stratum germinativum. Alternatively, the composition can be dispensed on the affected area, and then scratched into the area. Scratching with cleaned finger nails or a sterilized scraping tool, for example small sharp curette or a needle point, can be used.
(§1) The composition can be applied topically to the affected area one or more times a day, typically one to two times a day, when a herpes simplex episode occurs or during the course of shingles or chicken box. When the pain is severe, the composition can be applied more frequently to help alleviate the symptoms. Moreover, the composition can also be integrated into or applied on medical dressing, dermal patch, or lint free wipes, which can be applied to the affected area as needed, to provide a more extended exposure to the medication.
For herpes zoster, at the early onset the patient develops a patch of linear area of paresthesia, and hyperesthesia (burning, stinging, and pain). At this time, the composition containing ivermectin should be topically applied promptly and scratched into the skin. Concurrently, an oral antiviral medication can be used promptly.
(§2) Operating with informed consent of individuals, individuals were treated with the topical composition and the method of the present invention for treating herpes virus infection, more particularly herpes simplex and herpes zoster or shingles, as described in Examples 3 to 8.

Data set [3] deals with herpes simplex virus. The experiment in a line: Informal trials: topical ivermectin lotion in patients with herpes simplex. The class given is in vivo, human.
Text: The composition of the present invention described above is applied to the affected area of patients having herpes simplex, herpes zoster, or chicken-pox. Preferably, the lotion, cream, gel, or ointment can be applied on the affected area with gentle rubbing to help penetration of the macrocyclic lactone compound into the skin. Moreover, when lotion, cream, or hydrogel is used, preferably the affected area is dampened by water first, then a drop of lotion, cream, or hydrogel is rubbed on the affected area by finger(s). […] Moreover, if blisters are already formed at the affected area, at the time of applying the topical composition the blisters can be broken using a needle, then the composition is rubbed in the lesion.
as §1
The most impressive results are seen with early recognition and treatment. […] In medicine, a prodrome is an early symptom (or set of symptoms) that might indicate the start of a disease before specific symptoms occur. Prodromes may be non-specific symptoms or, in some instances, may clearly indicate a particular disease. In herpes simplex there is a prodrome consisting of a change in sensation, typically slight numbness or a faint tingling sensation with vague swelling or induration.
as §2

The nature of data set [4]: Side effects and tolerability observed in treated patients. The class given is in vivo, human. The conditions noted are these: Example 5: person, high dose. On the procedure:
Operating with informed consent of individuals, individuals were treated with the topical composition and the method of the present invention for treating herpes virus infection, more particularly herpes simplex and herpes zoster or shingles, as described in Examples 3 to 8. In the above described informal trials, no adverse side effects or contra-indications were observed among the patients. The patients had no complaints of skin irritation, sensitivity or discomfort originating from the treatment.

Setting [5] is: topical composition, ivermectin concentration as low as 0.075%.

The values below come from patent US8901091B2, “Method of treating herpes virus infection using macrocyclic lactone compound” (Galderma S.A., priority 2010, dated 2014).

In the case of `O=c1[nH]c(=O)n([C@H]2C[C@H](O)[C@@H](CO)O2)cc1I` [idoxuridine], in data set [1] (topical, reported in a study), the Pain duration result is given as “reduced pain duration” and the “Time to loss of crust” value is “decreased time to loss of crust”. As for `CC(=O)OCC(CCn1cnc2cnc(N)nc21)COC(C)=O` [Famvir®, famciclovir], the “Response of severe pain with burning and tingling to prior therapy” value in data set [2] (Example 6: person, high dose) was “had not responded”. As for `CC(C)[C@H](N)C(=O)OCCOCn1cnc2c(=O)[nH]c(N)nc21` [Valtrex®, valacyclovir], the “Satisfaction with prior therapy” value in data set [3] (Example 5: person, high dose) is recorded as “without total satisfaction”. In addition, the “Side effects of prior therapy” value in data set [4] was “cardiac irregularities, especially bigeminy and trigeminy”. Take `Nc1nc2c(ncn2COCCO)c(=O)[nH]1` [Zovirax®, acyclovir]: the “Benefit of prior therapy, orally” value in data set [3] (Example 3: patient history, oral) is “with benefit”. In data set [3] (Example 3: patient history, topical), the “Benefit of prior therapy, topically” value is “without benefit”. Turning to `Nc1nc2c(ncn2CCC(CO)CO)c(=O)[nH]1` [penciclovir], the “Duration of lesions, pain, and viral shedding” value in data set [1] (cream applied early and late in course of HSV infection (Hamuy et al. 1998)) was “decreased the duration of lesions, pain, and viral shedding”.

As for ivermectin, the “Effectiveness in treating herpes simplex” value in data set [3] (setting [5]) is “effective”. The “Effectiveness in treating herpes zoster” value in data set [2] (setting [5]) was “effective”. Moreover, the “Effect of combined systematic and topical treatments on severity of herpes zoster” value in data set [2] (topical ivermectin composition with concurrent oral antiviral medication) is listed as “synergistic effect in decreasing the severity”.
